Source: ChEMBL document CHEMBL1201862, “PubChem BioAssay data set” (2004)
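Following 48 hours of exposure in 96-well plates, responses at five concentrations were used to interpolate endpoints linearly. GI50 = concentration required for 50% inhibition of growth.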 The source made the active and inactive calls. Rule as the data show it: active = GI50 up to about 1.1 µM and inactive = higher.

Tests used:
Assay in all cases: inhibition of tumour cell growth, NCI panel, 48 h
[1] = test system: OVCAR-5
[2] = test system: NCI-H522
[3] = test system: A549
[4] = test system: HL-60
[5] = test system: CCRF-CEM
[6] = test system: SF-539
[7] = test system: UACC-257
[8] = test system: SK-MEL-5
[9] = test system: COLO 205
[10] = test system: MCF7
[11] = test system: OVCAR-3
[12] = test system: CAKI-1
[13] = test system: IGROV-1
[14] = test system: A498
[15] = test system: SNB-75
[16] = test system: SW-620
[17] = test system: SF-295
[18] = test system: UACC-62
[19] = test system: Hs-578T
[20] = test system: HOP-92
[21] = test system: SR
[22] = test system: KM12
[23] = test system: SK-OV-3
[24] = test system: K562
[25] = test system: RPMI-8226
[26] = test system: SN12C
[27] = test system: SK-MEL-28
[28] = test system: MDA-MB-435
[29] = test system: PC-3
[30] = test system: DU-145
[31] = test system: 786-0
[32] = test system: NCI-H460
[33] = test system: MDA-N
[34] = test system: BT-549
[35] = test system: HCT-15
[36] = test system: SNB-19
[37] = test system: HOP-62
[38] = test system: EKVX
[39] = test system: SK-MEL-2
[40] = test system: TK-10
[41] = test system: MDA-MB-231
[42] = test system: LOX IMVI
[43] = test system: MOLT-4
[44] = test system: ACHN
[45] = test system: HCT-116
[46] = test system: OVCAR-4
[47] = test system: T47D
[48] = test system: U-251
[49] = test system: UO-31
[50] = test system: RXF 393

CCOC(=O)Nc1nn(C)/c(=N/Cc2ccccc2)s1 was tested, and the GI50 [1] was > 100 µM (inactive), the GI50 [2] was 86.3 µM (inactive) and the GI50 [3] was > 100 µM (inactive). For the same molecule, the GI50 [4] was > 100 µM (inactive), the GI50 [5] was > 100 µM (inactive) and the GI50 [6] was > 100 µM (inactive). The GI50 [7] was > 100 µM (inactive), the GI50 [8] was > 100 µM (inactive) and the GI50 [9] was > 100 µM (inactive). For the same molecule, the GI50 [10] was > 100 µM (inactive), the GI50 [11] was > 100 µM (inactive) and the GI50 [12] was > 100 µM (inactive). The GI50 [13] was > 100 µM (inactive), the GI50 [14] was > 100 µM (inactive) and the GI50 [15] was > 100 µM (inactive). For the same molecule, the GI50 [16] was > 100 µM (inactive), the GI50 [17] was > 100 µM (inactive) and the GI50 [18] was > 100 µM (inactive). For the same molecule, the GI50 [19] was > 100 µM (inactive), the GI50 [20] was > 100 µM (inactive) and the GI50 [21] was > 100 µM (inactive). For the same molecule, the GI50 [22] was > 100 µM (inactive), the GI50 [23] was > 100 µM (inactive) and the GI50 [24] was > 100 µM (inactive). The GI50 [25] was > 100 µM (inactive), the GI50 [26] was > 100 µM (inactive) and the GI50 [27] was > 100 µM (inactive). The GI50 [28] was > 100 µM (inactive), the GI50 [29] was > 100 µM (inactive) and the GI50 [30] was > 100 µM (inactive). For the same molecule, the GI50 [31] was > 100 µM (inactive), the GI50 [32] was > 100 µM (inactive) and the GI50 [33] was > 100 µM (inactive). For the same molecule, the GI50 [34] was 85.1 µM (inactive), the GI50 [35] was > 100 µM and the GI50 [36] was > 100 µM (inactive). The GI50 [37] was > 100 µM (inactive), the GI50 [38] was > 100 µM (inactive) and the GI50 [39] was > 100 µM (inactive). For the same molecule, the GI50 [40] was > 100 µM (inactive), the GI50 [41] was > 100 µM (inactive) and the GI50 [42] was > 100 µM (inactive). For the same molecule, the GI50 [43] was > 100 µM (inactive), the GI50 [44] was > 100 µM (inactive) and the GI50 [45] was > 100 µM (inactive). The GI50 [46] was > 100 µM (inactive), the GI50 [47] was > 100 µM (inactive) and the GI50 [48] was > 100 µM (inactive). The GI50 [49] was 33.4 µM (inactive) and the GI50 [50] was > 100 µM (inactive).
